# Assay results from patent US20260041744A1, “Methods for Treating Pompe Disease” (Amicus Therapeutics, Inc., priority 2022, published 2026).
# Test system: adults with Pompe disease
# Assay: Study ATB200-02: manual muscle test (MMT lower extremity, upper body, total)
# Assay type: in vivo, human
# Conditions: for MMT total score (upper body) change from baseline, mean: Cohort 2 (non-ambulatory ERT-experienced)
# Source text: Results for lower extremity MMT are shown in Table 25 and FIGS. 48A and 48B.
# [1] = Ambulatory ERT-experienced, 12 months
# [2] = Ambulatory ERT-experienced, 24 months
# [3] = Ambulatory ERT-experienced, 36 months
# [4] = Ambulatory ERT-experienced, 48 months
# [5] = Ambulatory ERT-naïve, 12 months
# [6] = Ambulatory ERT-naïve, 24 months
# [7] = Ambulatory ERT-naïve, 36 months
# [8] = Ambulatory ERT-naïve, 48 months
# [9] = Cohort 1 + Cohort 3 + Cohort 4, Month 12
# [10] = Cohort 1 + Cohort 3 + Cohort 4, Month 24
# [11] = Cohort 1 + Cohort 3 + Cohort 4, Month 36
# [12] = Cohort 1 + Cohort 3 + Cohort 4, Month 48
# [13] = Non-ambulatory ERT-experienced, 12 months
# [14] = Non-ambulatory ERT-experienced, 24 months
# [15] = Non-ambulatory ERT-experienced, 36 months
substance,measurement,setting,value
"ATB200/miglustat: two-component therapy: cipaglucosidase alfa (ATB200) administered in conjunction with miglustat (AT2221), a stabilizer of cipaglucosidase alfa",muscle strength by MMTs and QMTs,48 months,stable or improved muscle strength in the lower and upper extremities and proximal muscle groups
same,"Lower body MMT score, CFBL mean",[1],3.1
same,"Total MMT score, CFBL mean",[1],4.3
same,"Upper body MMT score, CFBL mean",[1],1.3
same,"Lower body MMT score, CFBL mean",[2],2.1
same,"Total MMT score, CFBL mean",[2],2.5
same,"Upper body MMT score, CFBL mean",[2],0.5
same,"Lower body MMT score, CFBL mean",[3],2.5
same,"Total MMT score, CFBL mean",[3],3.6
same,"Upper body MMT score, CFBL mean",[3],0.8
same,"Lower body MMT score, CFBL mean",[4],3.5
same,"Total MMT score, CFBL mean",[4],4.0
same,"Upper body MMT score, CFBL mean",[4],0.5
same,"Lower body MMT score, CFBL mean",[5],2.8
same,"Total MMT score, CFBL mean",[5],2.4
same,"Upper body MMT score, CFBL mean",[5],0.0
same,"Lower body MMT score, CFBL mean",[6],3.0
same,"Total MMT score, CFBL mean",[6],2.0
same,"Upper body MMT score, CFBL mean",[6],−1.5
same,"Lower body MMT score, CFBL mean",[7],(3.3
same,"Total MMT score, CFBL mean",[7],3.5
same,"Upper body MMT score, CFBL mean",[7],1.0
same,"Lower body MMT score, CFBL mean",[8],(1.0)
same,"Total MMT score, CFBL mean",[8],−1.3
same,"Upper body MMT score, CFBL mean",[8],−1.4
same,"MMT (total score) CFB, mean","Cohort 1 + Cohort 3 + Cohort 4, 24-mo",2.4
same,"MMT (total score) CFB, mean","Cohort 1 + Cohort 3 + Cohort 4, 48-mo",2.3
same,"MMT lower extremity score change from baseline, mean",[9],3.0
same,"MMT lower extremity score change from baseline, median",[9],3.0
same,"MMT lower extremity score change from baseline, mean",[10],2.3
same,"MMT lower extremity score change from baseline, median",[10],2.0
same,"MMT lower extremity score change from baseline, mean",[11],2.7
same,"MMT lower extremity score change from baseline, median",[11],2.0
same,"MMT lower extremity score change from baseline, mean",[12],2.7
same,"MMT lower extremity score change from baseline, median",[12],3.0
same,"MMT (total score) CFB, mean","Cohort 1 + Cohort 4 (ERT-experienced), 24-mo",2.5
same,"MMT (total score) CFB, mean","Cohort 1 + Cohort 4 (ERT-experienced), 48-mo",4.0
same,"MMT lower extremity score change from baseline, mean","Cohort 1 + Cohort 4 (ERT-experienced), Month 12",3.1 pts
same,"MMT lower extremity score change from baseline, mean","Cohort 1 + Cohort 4 (ERT-experienced), Month 24",2.1 pts
same,"MMT lower extremity score change from baseline, mean","Cohort 1 + Cohort 4 (ERT-experienced), Month 36",2.5 pts
same,"MMT lower extremity score change from baseline, mean","Cohort 1 + Cohort 4 (ERT-experienced), Month 48",3.5 pts
same,"MMT lower extremity score change from baseline, median","Cohort 1 + Cohort 4, Month 12",2.0
same,"MMT lower extremity score change from baseline, median","Cohort 1 + Cohort 4, Month 24",2.0
same,"MMT lower extremity score change from baseline, median","Cohort 1 + Cohort 4, Month 36",1.5
same,"MMT lower extremity score change from baseline, median","Cohort 1 + Cohort 4, Month 48",3.0
same,"MMT total score (upper body) change from baseline, mean",month 12,+1.3 pts
same,"MMT total score (upper body) change from baseline, mean",month 24,+2.0 pts
same,"MMT total score (upper body) change from baseline, mean",month 36,−0.8 pts
same,"MMT (total score) CFB, mean","Cohort 3 (ERT-naïve), 24-mo",2.0
same,"MMT (total score) CFB, mean","Cohort 3 (ERT-naïve), 48-mo",−1.3
same,"MMT lower extremity score change from baseline, mean","Cohort 3 (ERT-naïve), Month 12",2.8 pts
same,"MMT lower extremity score change from baseline, mean","Cohort 3 (ERT-naïve), Month 24",3.0 pts
same,"MMT lower extremity score change from baseline, mean","Cohort 3 (ERT-naïve), Month 36",3.3 pts
same,"MMT lower extremity score change from baseline, mean","Cohort 3 (ERT-naïve), Month 48",1.0 pts
same,"MMT lower extremity score change from baseline, median","Cohort 3, Month 12",4.0
same,"MMT lower extremity score change from baseline, median","Cohort 3, Month 24",3.0
same,"MMT lower extremity score change from baseline, median","Cohort 3, Month 36",3.5
same,"MMT lower extremity score change from baseline, median","Cohort 3, Month 48",2.0
same,patients whose MMT lower extremity score improved numerically from baseline (n/N),"ERT-experienced ambulatory, 12 months",14/15
same,patients whose MMT lower extremity score improved numerically from baseline (n/N),"ERT-experienced ambulatory, 24 months",11/13
same,patients whose MMT lower extremity score improved numerically from baseline (n/N),"ERT-experienced ambulatory, 36 months",10/10
same,patients whose MMT lower extremity score improved numerically from baseline (n/N),"ERT-experienced ambulatory, 48 months",8/8
same,patients whose MMT lower extremity score improved numerically from baseline (n/N),"ERT-naïve, 12 months",4/5
same,patients whose MMT lower extremity score improved numerically from baseline (n/N),"ERT-naïve, 24 months",4/5
same,patients whose MMT lower extremity score improved numerically from baseline (n/N),"ERT-naïve, 36 months",4/4
same,patients whose MMT lower extremity score improved numerically from baseline (n/N),"ERT-naïve, 48 months",3/4
same,"Total MMT score, CFBL mean",[13],1.3
same,"Upper body MMT score, CFBL mean",[13],1.3
same,"Total MMT score, CFBL mean",[14],2.0
same,"Upper body MMT score, CFBL mean",[14],2.0
same,"Total MMT score, CFBL mean",[15],−0.8
same,"Upper body MMT score, CFBL mean",[15],−0.8
